Reference: publication PMC12051620, “Molecular basis underlying the specificity of an antagonist AA92593 for mammalian melanopsins” (The Journal of Biological Chemistry, 2025)

Target: T1, human melanopsin (Homo sapiens, UniProt Q9UHM6)
T1 sequence (Q9UHM6 1-384 limits assumed): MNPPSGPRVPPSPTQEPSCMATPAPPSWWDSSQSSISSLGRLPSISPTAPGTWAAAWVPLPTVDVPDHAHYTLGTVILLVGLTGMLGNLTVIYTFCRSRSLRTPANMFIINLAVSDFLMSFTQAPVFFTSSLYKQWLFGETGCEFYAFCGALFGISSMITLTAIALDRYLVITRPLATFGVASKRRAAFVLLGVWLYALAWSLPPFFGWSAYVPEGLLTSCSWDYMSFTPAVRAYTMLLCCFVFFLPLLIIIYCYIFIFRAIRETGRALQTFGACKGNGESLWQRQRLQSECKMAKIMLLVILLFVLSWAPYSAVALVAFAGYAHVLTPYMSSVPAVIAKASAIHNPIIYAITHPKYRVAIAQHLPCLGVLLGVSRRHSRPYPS
Experiment: GsX GloSensor assay with Gsα/i11
Type: cell-based
Set-up: the C-terminal amino acid residues (94, 140, 200, 214, 296, and 308 residues); expressed in transfected cells; host or cells: COS-1
Conditions: 16.7 μM AA92593; COS-1 cells
Text: Previous studies of human and mouse melanopsins reported that these melanopsins can activate not only Gq but Gs and Gi ([20], [21], [22]). Thus, we assessed the effect of AA92593 on Gsα WT or Gsα/i11 (with 11 C-terminal sequence of Giα) using the GsX GloSensor assay. In agreement with the promiscuous G protein-coupling of melanopsins, we observed light-dependent increase of GloSensor luminescence in COS-1 cells expressing Gsα or Gsα/i11 with human/mouse melanopsins (Fig. 1, G–J).
For GloSensor assay, opsins, GloSensor assay sensor (coded by pGlo-22F), and NanoBiT-tagged G proteins were transiently expressed in COS-1 cells (kindly provided from Dr David Farrens, Oregon Health and Science University) using PEI as described previously ([24], [52]). […] For GFP-fluorescence microscopy, a 35-mm cell culture dish (IWAKI) was transfected with 2 μg melanopsin-GFP plasmid and 8 μg PEI in 400 μl Opti-mem and 1.2 ml D-MEM. […]
The transfected COS-1 cells were incubated at 37 °C, 5% CO2 for 2 days, and the medium was aspirated and exchanged with 50 μl of HBSS (145 mM NaCl, 10 mM D-glucose, 5 mM KCl, 1 mM MgCl2, 1.7 mM CaCl2, 1.5 mM NaHCO3, 10 mM Hepes, pH 7.4), containing 33.3, 20, 10, 2, 0.2, 0.02, 0.002, or 0 μM AA92593, 0.5% dimetyl sulfoxide (DMSO), and 4% (vol/vol) GloSensor cAMP reagent stock solution. […] Luminescence was measured using GM-2000 or GM-3510 microplate reader (Promega). […]

COc1ccc(S(=O)(=O)N2CCCCC2)cc1C [AA92593]
effect on melanopsin-induced cAMP responses via Gsα/i11: can suppress
